Experimental data reported in patent US10939901B2, “Customizable anchorage devices and methods of use” (TYRX, Inc., priority 2016, dated 2021).
Values belong to the compound of their own block, whether it stands above or below them.

Assays:
[1] = tested on: myofibroblast formation; details: Ajmal et al. (2003); cited from earlier work
[2] = Stability of rifampin and minocycline in PBS with and without tranexamic acid; assay type: physicochemical
Experimental: To determine the stability of active pharmaceutical ingredients, such as, for example, one or more of active pharmaceutical ingredients 26 when combined with a hemostatic agent, such as, for example, one or more of hemostatic agents 24, mixtures of rifampin and minocycline were prepared in phosphate-buffered saline (PBS) with and without tranexamic acid (TXA). The mixtures were tested both at room temperature (RT) (about 23° C.) and at 37° C.

[3] = In vitro elution of rifampin and minocycline from p22-27.5 polymers with TXA in the release media; assay type: physicochemical; details: PBS pH 7.4 without TXA, with TXA 0.05 mg/mL or 5 mg/mL, over 25 hours
From the text: To determine the elution of active pharmaceutical ingredients, such as, for example, one or more of active pharmaceutical ingredients 26 from a polymer, such as, for example, one of the polymers discussed herein, in vitro when the active pharmaceutical ingredients are combined with a hemostatic agent, such as, for example, one or more of hemostatic agents 24, in vitro elution of rifampin and minocycline from polymers in the p22-27.5 family containing different amounts of tranexamic acid was evaluated in a PBS buffer over 25 hours. B1=PBS pH 7.4; B2=PBS, pH 7.4+TXA (0.05 mg/mL); B3=PBS, pH 7.4+TXA (5 mg/mL).

[4] = tested on: blood clotting; experiment: Time required to induce blood clotting in vitro; assay type: biochemical
Experimental: Tests were conducted to compare the time required to induce blood clotting in vitro when different amounts of hemostatic agent is administered in the presence of TYRX (degradable mesh coated with P22-27.5 containing rifampin and minocycline), as shown in FIG. 23.
Tests were conducted to compare the time required for different hemostatic agents to induce blood clotting in vitro versus the time required to induce blood clotting in vitro when no hemostatic agent is administered. In particular, the time required to induce blood clotting was plotted for blood alone, TYRX, Surgicel, TYRX with 1.6 mg of TXA, 1.2 mg of TXA alone and TYRX with 200 mg of TXA. In this example, TYRX refers to a Glycoprene mesh that is coated with P22-27.5 (a polymer in the P22-X family) containing Rifampin and Minocycline.

SMILES: O=S(=O)([O-])CCS.[Na+] [MESNA, sodium 2-mercaptoethane sulfonate]
myofibroblast formation [1]: diminish myofibroblast formation

percentage area of rifampin, mixtures with versus without tranexamic acid ([2]; RT (about 23° C.) and 37° C., regardless of the temperature): substantially the same
elution rate from p22-27.5 polymer [3]: not affected by the presence of TXA
SMILES: CO[C@H]1/C=C/O[C@@]2(C)Oc3c(C)c(O)c4c(O)c(c(/C=N/N5CCN(C)CC5)c(O)c4c3C2=O)NC(=O)/C(C)=C\C=C\[C@H](C)[C@H](O)[C@@H](C)[C@@H](O)[C@@H](C)[C@H](OC(C)=O)[C@@H]1C [rifampin]

SMILES: NC[C@H]1CC[C@H](C(=O)O)CC1 [tranexamic acid]
effect on the stability of rifampin and minocycline ([2]; RT and 37° C.): does not negatively affect the stability of rifampin and minocycline
Clotting time ([4]; higher amounts of TXA (1.6 mg TXA vs 200 mg of TXA) in the presence of TYRX): increased
time required to induce blood clotting ([4]; in vitro, 1.2 mg of TXA alone): about 19 minutes
